In patent publication US10669272B2, “Substituted naphthyridinone compounds useful as T cell activators” (BRISTOL-MYERS SQUIBB COMPANY, priority 2018, dated 2020):
Read-outs that look alike come from different tables or passages of the source.

What was measured:
[1] = target: T1, human DGKα (Homo sapiens, UniProt P23743); assay: DGKα LIPGLO assay (extruded liposome substrate), in vitro DGK inhibition; format: biochemical; settings: read-out: DGKa LIPGLO IC50
T1 construct: TVMV protease cleavage site (C); Hexa-His (C); made in house; host or cells: Sf9 insect cells (baculovirus, Bac-to-Bac)
T1 sequence (P23743 with tags, fused parts or gaps): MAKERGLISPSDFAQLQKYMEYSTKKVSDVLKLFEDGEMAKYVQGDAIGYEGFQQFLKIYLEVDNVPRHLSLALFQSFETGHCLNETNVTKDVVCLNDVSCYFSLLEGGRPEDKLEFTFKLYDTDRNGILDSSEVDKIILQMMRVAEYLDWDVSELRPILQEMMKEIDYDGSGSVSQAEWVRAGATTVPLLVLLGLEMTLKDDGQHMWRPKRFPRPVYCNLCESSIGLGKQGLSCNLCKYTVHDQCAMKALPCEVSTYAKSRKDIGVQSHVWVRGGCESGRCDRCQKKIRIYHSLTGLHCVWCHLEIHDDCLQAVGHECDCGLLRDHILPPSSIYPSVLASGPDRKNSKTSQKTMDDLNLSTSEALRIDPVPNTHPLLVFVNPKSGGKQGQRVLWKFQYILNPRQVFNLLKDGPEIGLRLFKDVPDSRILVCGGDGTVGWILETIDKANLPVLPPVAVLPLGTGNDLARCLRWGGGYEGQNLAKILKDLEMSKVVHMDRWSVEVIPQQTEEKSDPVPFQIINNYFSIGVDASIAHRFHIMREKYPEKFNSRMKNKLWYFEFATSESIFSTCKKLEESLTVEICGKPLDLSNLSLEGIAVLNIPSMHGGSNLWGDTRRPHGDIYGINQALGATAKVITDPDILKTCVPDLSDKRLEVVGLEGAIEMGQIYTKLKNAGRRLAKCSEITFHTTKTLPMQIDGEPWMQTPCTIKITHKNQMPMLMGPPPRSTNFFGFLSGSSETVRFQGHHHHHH

[2] = test system: naïve human CD8 T cells; assay: Human CD8 T cells IFN-γ assay; format: cell-based; settings: read-out: HuCD8 INFG Normalized EC50;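 also: Naïve human CD8 T cells stimulated with plate-bound anti-CD3 and soluble anti-CD28, IFN-γ in supernatant quantified by AlphaLISA and converted to pg/mL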
[3] = target: T2, human DGKζ (Homo sapiens, UniProt Q13574); assay: DGKζ LIPGLO assay (extruded liposome substrate), in vitro DGK inhibition; format: biochemical; settings: read-out: DGKz LIPGLO IC50
T2 construct: TVMV protease cleavage site (C); Hexa-His (C); made in house; host or cells: Sf9 insect cells (baculovirus, Bac-to-Bac)
T2 sequence (Q13574 with tags, fused parts or gaps isoform Q13574-4): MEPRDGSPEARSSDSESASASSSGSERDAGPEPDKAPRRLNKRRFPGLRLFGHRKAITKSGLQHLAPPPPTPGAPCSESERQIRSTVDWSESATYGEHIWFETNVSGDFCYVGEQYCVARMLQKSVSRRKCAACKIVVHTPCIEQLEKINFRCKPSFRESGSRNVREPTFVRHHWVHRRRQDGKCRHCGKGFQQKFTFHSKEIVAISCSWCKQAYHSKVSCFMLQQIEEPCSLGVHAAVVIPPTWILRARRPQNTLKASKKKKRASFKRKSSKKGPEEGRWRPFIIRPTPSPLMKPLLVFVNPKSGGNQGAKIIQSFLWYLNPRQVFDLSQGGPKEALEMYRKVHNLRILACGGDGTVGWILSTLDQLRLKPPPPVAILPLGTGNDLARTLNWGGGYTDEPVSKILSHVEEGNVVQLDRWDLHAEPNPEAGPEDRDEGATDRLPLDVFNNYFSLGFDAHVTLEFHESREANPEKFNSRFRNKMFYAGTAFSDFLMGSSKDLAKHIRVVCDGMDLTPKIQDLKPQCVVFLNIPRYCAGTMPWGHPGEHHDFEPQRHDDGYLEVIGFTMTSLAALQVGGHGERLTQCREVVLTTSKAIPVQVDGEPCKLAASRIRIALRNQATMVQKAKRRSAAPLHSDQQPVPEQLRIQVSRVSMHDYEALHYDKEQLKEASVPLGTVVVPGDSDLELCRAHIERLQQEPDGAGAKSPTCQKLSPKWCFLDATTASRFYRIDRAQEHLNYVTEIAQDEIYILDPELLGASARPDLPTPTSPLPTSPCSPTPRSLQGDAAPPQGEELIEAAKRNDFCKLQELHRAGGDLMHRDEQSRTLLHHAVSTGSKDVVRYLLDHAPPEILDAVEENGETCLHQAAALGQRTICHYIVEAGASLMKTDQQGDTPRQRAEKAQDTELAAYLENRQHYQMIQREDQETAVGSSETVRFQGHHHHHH

[4] = test system: Human venous whole blood; assay: Human whole blood IFN-γ assay; format: cell-based; settings: human whole blood, read-out: INFg Whole Blood Normalized Agonist EC50;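 also: blood from healthy donors exposed to compound for 1 h before stimulation with anti-CD3 and anti-CD28 at 1 µg/mL each, IFN-γ quantified in supernatant by AlphaLISA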
[5] = Homo sapiens, T-cell, 20 h, normalized to 3 μM reference compound with anti-CD3 plus anti-CD28 as 100% activation
[6] = Homo sapiens, 24 h, normalized to 3 μM reference compound with anti-CD3 plus anti-CD28 as 100% activation
[7] = normalized to 3 μM reference compound with anti-CD3 plus anti-CD28 as 100% activation
[8] = Homo sapiens, T-cell, 20 h, naïve human CD8 T cells, anti-CD3 plus anti-CD28, 3 μM reference compound = 100% activation
[9] = Homo sapiens, 24 h, anti-CD3 plus anti-CD28, 24 hours, 3 μM reference compound = 100% activation

SMILES	IC50 ([1]; liposome (LIPGLO) assay)	IC50 ([3]; liposome (LIPGLO) assay)	EC50 [2, 5]	EC50 [4, 6]	EC50 [4, 7]	other results
Cn1c(=O)cc(N2CCN(C(c3ccc(F)cc3)c3ccc(F)cc3)C(C(=O)NC3CC3)C2)c2nc(C#N)ccc21 (single isomer, unassigned) [Example 47, 1-(bis(4-fluorophenyl)methyl)-4-(6-cyano-1-methyl-2-oxo-1,2-dihydro-1,5-naphthyridin-4-yl)-N-cyclopropylpiperazine-2-carboxamide]	260000 nM	5200 nM		5000 nM		EC50 [2, 7]: 10000 nM
Cc1ccc(C(c2cccc(C)n2)N2C[C@H](C)N(c3cc(=O)n(C)c4ccc(C#N)nc34)C[C@H]2C)cc1 (stereo partly drawn) [Example 450, 8-((2S,5R)-2,5-dimethyl-4-((6-methylpyridin-2-yl)(p-tolyl)methyl)piperazin-1-yl)-5-methyl-6-oxo-5,6-dihydro-1,5-naphthyridine-2-carbonitrile]	2600 nM	290 nM	70 nM	280 nM		
Cc1ccc(C(c2ccc(Cl)cn2)N2C[C@H](C)N(c3cc(=O)n(C)c4ccc(C#N)nc34)C[C@H]2C)cc1 (single isomer, unassigned) [Example 200]	61 nM	200 nM			540 nM	EC50 [2, 7]: 40 nM
CC(c1c(F)cc(F)cc1F)N1C[C@H](C)N(c2cc(=O)n(C)c3ccc(C#N)nc23)C[C@H]1C (single isomer, unassigned) [Example 432]	510 nM	500 nM	15 nM	67 nM		
Cc1cccc(C)c1CN1C[C@H](C)N(c2cc(=O)n(C)c3ccc(C#N)nc23)C[C@H]1C [Example 265, 8-[(2S,5R)-4-[(2,6-dimethylphenyl)methyl]-2,5-dimethylpiperazin-1-yl]-5-methyl-6-oxo-5,6-dihydro-1,5-naphthyridine-2-carbonitrile]	23000 nM	2600 nM	1600 nM	3800 nM		
COc1cc(CN2C[C@H](C)N(c3cc(=O)n(C)c4ccc(C#N)nc34)C[C@H]2C)cc(C(F)(F)F)n1 [Example 280, 8-[(2S,5R)-4-{[2-methoxy-6-(trifluoromethyl)pyridin-4-yl]methyl}-2,5-dimethylpiperazin-1-yl]-5-methyl-6-oxo-5,6-dihydro-1,5-naphthyridine-2-carbonitrile]	7900 nM	7300 nM	680 nM	7700 nM		
C[C@@H]1CN(c2cc(=O)n(C)c3ccc(C#N)nc23)[C@@H](C)CN1C(c1ccc(Cl)cc1)c1ncccc1F (single isomer, unassigned) [Example 189]	200 nM	550 nM	100 nM	1200 nM		
CCC(c1ccc(F)c(F)c1)N1C[C@H](C)N(c2cc(=O)n(C)c3ccc(C#N)nc23)C[C@H]1C (single isomer, unassigned) [Example 344]	1000 nM	1000 nM	24 nM	460 nM		
C[C@@H]1CN(c2cc(=O)n(C)c3ccc(C#N)nc23)[C@@H](C)CN1C(c1ccc(F)cn1)c1ccc(F)cc1F (single isomer, unassigned) [Example 685]	300 nM	1000 nM	12 nM		100 nM	
CC(c1c(F)cccc1F)N1C[C@H](C)N(c2cc(=O)n(C)c3ccc(C#N)nc23)C[C@H]1C (stereo partly drawn) [Example 256, 8-[(2S,5R)-4-[1-(2,6-difluorophenyl)ethyl]-2,5-dimethylpiperazin-1-yl]-5-methyl-6-oxo-5,6-dihydro-1,5-naphthyridine-2-carbonitrile]	140 nM	570 nM	22 nM			EC50 ([4]; Homo sapiens, normalized to 3 μM reference compound with anti-CD3 plus anti-CD28 as 100% activation): 650 nM
C[C@@H]1CN(c2cc(=O)n(C)c3ccc(C#N)nc23)[C@@H](C)CN1Cc1ccc(OC(F)(F)F)cc1F [Example 243, 8-[(2S,5R)-4-{[2-fluoro-4-(trifluoromethoxy)phenyl]methyl}-2,5-dimethylpiperazin-1-yl]-5-methyl-6-oxo-5,6-dihydro-1,5-naphthyridine-2-carbonitrile]	290 nM	1900 nM	160 nM	1500 nM		
C[C@@H]1CN(c2cc(=O)n(C)c3ccc(C#N)nc23)[C@@H](C)CN1C(c1ccc(F)cc1)c1nc(C2CC2)no1 (single isomer, unassigned) [Example 736]						IC50 ([1]; DGKα liposome (LIPGLO) assay): 160 nM; EC50 [2, 8]: 25 nM; IC50 ([3]; DGKζ liposome (LIPGLO) assay): 480 nM; EC50 [4, 9]: 150 nM
C[C@@H]1CN(c2c(C#N)c(=O)n(C)c3ccc(C#N)nc23)CCN1C(c1ccc(F)cc1)c1ccccn1 (single isomer, unassigned) [Example 918]						IC50 ([1]; DGKα liposome (LIPGLO) assay): 52 nM; EC50 [2, 8]: 130 nM; IC50 ([3]; DGKζ liposome (LIPGLO) assay): 380 nM; EC50 ([4]; anti-CD3 plus anti-CD28, 24 hours, 3 μM reference compound = 100% activation): 380 nM
C[C@@H]1CN(c2cc(=O)n(C)c3ccc(C#N)nc23)[C@@H](C)CN1C(c1ccc(Cl)cc1)c1ncccc1F (single isomer, unassigned) [Example 190]	220 nM	1100 nM			700 nM	EC50 [2, 7]: 170 nM
Cc1ccc(C(c2ccc(C)c(Cl)c2)N2C[C@H](C)N(c3cc(=O)n(C)c4ccc(C#N)nc34)C[C@H]2C)nc1 (single isomer, unassigned) [Example 373]	6500 nM	740 nM	180 nM	320 nM		
C[C@@H]1CN(c2cc(=O)n(C)c3ccc(C#N)nc23)[C@@H](C)CN1C(c1ccc(F)cc1)c1ccc(Cl)cn1 (single isomer, unassigned) [Example 212]	210 nM	590 nM			890 nM	EC50 [2, 7]: 57 nM
CC(c1ccc(F)cc1)N1C[C@H](C)N(c2cc(=O)n(C)c3ccc(C#N)nc23)C[C@H]1C (single isomer, unassigned) [Example 309]	720 nM	490 nM			880 nM	EC50 [2, 7]: 36 nM
C[C@@H]1CN(c2c(C#N)c(=O)n(C)c3ccc(C#N)nc23)CCN1C(c1ccc(F)cc1)c1ccc(Cl)cn1 (stereo partly drawn) [Example 932]						IC50 ([1]; DGKα liposome (LIPGLO) assay): 150 nM; EC50 ([2]; naïve human CD8 T cells, anti-CD3 plus anti-CD28, 3 μM reference compound = 100% activation): 52 nM; IC50 ([3]; DGKζ liposome (LIPGLO) assay): 1200 nM; EC50 [4, 9]: 310 nM
C[C@@H]1CN(c2cc(=O)n(C)c3ccc(C#N)nc23)[C@@H](C)CN1C(c1ccccc1)c1cccc(F)c1 (stereo partly drawn) [Example 296, 8-[(2S,5R)-4-[(3-fluorophenyl)(phenyl)methyl]-2,5-dimethylpiperazin-1-yl]-5-methyl-6-oxo-5,6-dihydro-1,5-naphthyridine-2-carbonitrile]	630 nM	900 nM	400 nM	1200 nM		

Second part, led by results:

IC50 ([1]; liposome (LIPGLO) assay)	IC50 ([3]; liposome (LIPGLO) assay)	SMILES	EC50 [2, 5]	EC50 [4, 6]	EC50 [4, 7]	other results
6500 nM	1700 nM	C[C@@H]1CN(c2cc(=O)n(C)c3ccc(C#N)nc23)[C@@H](C)CN1Cc1c(Cl)cccc1Cl [Example 263, 8-[(2S,5R)-4-[(2,6-dichlorophenyl)methyl]-2,5-dimethylpiperazin-1-yl]-5-methyl-6-oxo-5,6-dihydro-1,5-naphthyridine-2-carbonitrile]	610 nM	6300 nM		
2200 nM	1100 nM	Cc1nccc(C(c2ccc(F)cc2)N2C[C@H](C)N(c3cc(=O)n(C)c4ccc(C#N)nc34)C[C@H]2C)n1 (single isomer, unassigned) [Example 389]	25 nM		280 nM	
7400 nM	24000 nM	C[C@H]1CN(C(c2ccc(Cl)cc2)c2ccc(Cl)cc2)[C@H](CO)CN1c1cc(=O)n(C)c2ccc(C#N)nc12 [Example 1152]	10000 nM	780 nM		
1700 nM	2500 nM	C[C@@H]1CN(c2cc(=O)n(C)c3ccc(C#N)nc23)[C@@H](C)CN1C(c1ccc(OC(F)(F)F)cc1)c1cccc(F)n1 (single isomer, unassigned) [Example 368]			460 nM	EC50 [2, 7]: 10 nM
130 nM	760 nM	Cc1ccc(C(c2ccc(F)cn2)N2C[C@H](C)N(c3cc(=O)n(C)c4ccc(C#N)nc34)C[C@H]2C)cc1 (single isomer, unassigned) [Example 444]	49 nM	510 nM		
1200 nM	750 nM	C[C@@H]1CN(c2cc(=O)n(C)c3ccc(C#N)nc23)[C@@H](C)CN1C(c1ccccc1)c1ccc(OC(F)(F)F)cc1 (single isomer, unassigned) [Example 221]	42 nM		3000 nM	
120 nM	2600 nM	C[C@@H]1CN(c2cc(=O)n(C)c3ccc(C#N)nc23)[C@@H](C)CN1C(c1ccc(F)cc1)c1cocn1 (single isomer, unassigned) [Example 710]	22 nM		550 nM	
2900 nM	1100 nM	C[C@@H]1CN(c2cc(=O)n(C)c3ccc(C#N)nc23)[C@@H](C)CN1C(c1ccc(F)c(F)c1)c1ccccn1 (single isomer, unassigned) [Example 376]			380 nM	EC50 [2, 7]: 28 nM
